Measured values reported in patent publication US11667651B2, “Aminopyridine derivatives as phosphatidylinositol phosphate kinase inhibitors” (HiberCell, Inc., priority 2017, dated 2023).

Assays:
[1] = target: T1, PIP4K2A (Homo sapiens, UniProt P48426); assay: Kinase Assay PIP4K2 A (Table 2); format: biochemical; set-up: 4 nM PIP4K2A (full length protein, SignalChem); purchased SignalChem; settings: compounds listed under IC50 bins
T1 sequence (P48426 1-406): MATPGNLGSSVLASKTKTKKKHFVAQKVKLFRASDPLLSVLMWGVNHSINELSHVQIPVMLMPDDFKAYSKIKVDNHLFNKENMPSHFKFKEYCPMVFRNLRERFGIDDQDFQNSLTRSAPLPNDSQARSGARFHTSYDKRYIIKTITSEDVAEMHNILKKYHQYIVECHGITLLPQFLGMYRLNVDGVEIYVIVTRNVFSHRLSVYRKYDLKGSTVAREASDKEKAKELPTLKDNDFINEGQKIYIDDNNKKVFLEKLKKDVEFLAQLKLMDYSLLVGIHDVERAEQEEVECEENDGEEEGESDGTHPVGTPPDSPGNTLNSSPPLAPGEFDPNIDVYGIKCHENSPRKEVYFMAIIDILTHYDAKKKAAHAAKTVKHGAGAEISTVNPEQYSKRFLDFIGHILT
In short: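 ADP-Glo luminescent read-out after 1 h room-temperature kinase reaction, started with 60 μM ATP solution following 15 min compound pre-incubation. Enzyme/substrate mix: 4 nM full-length PIP4K2A plus 100 μM PI(5)P diC8; buffer MOPS pH 7.2 with 25 mM MgCl2 and Tween 20. IC50 from 10-point, 3-fold titrations normalized to DMSO.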

[2] = target: T2, PIP4K2B (Homo sapiens, UniProt P78356); assay: Trans-FI P kinase assay PIP4K2B (Table 4); format: biochemical; settings: compounds listed under IC50 bins; read-out: Trans-FI P kinase assays: PIP4K2B IC50
T2 construct: made in house; host or cells: E. coli
T2 sequence (P78356 1-416): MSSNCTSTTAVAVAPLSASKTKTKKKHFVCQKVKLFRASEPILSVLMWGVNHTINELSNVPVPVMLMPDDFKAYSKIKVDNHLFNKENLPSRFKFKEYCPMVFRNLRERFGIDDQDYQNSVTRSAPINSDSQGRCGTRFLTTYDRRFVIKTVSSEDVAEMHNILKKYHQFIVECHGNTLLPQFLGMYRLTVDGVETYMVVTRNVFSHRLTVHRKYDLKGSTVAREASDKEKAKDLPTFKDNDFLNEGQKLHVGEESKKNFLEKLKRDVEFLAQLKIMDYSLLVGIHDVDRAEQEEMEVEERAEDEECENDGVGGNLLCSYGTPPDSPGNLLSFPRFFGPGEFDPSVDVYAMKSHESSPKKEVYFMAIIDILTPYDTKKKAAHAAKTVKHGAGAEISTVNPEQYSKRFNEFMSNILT
From the text: GST tagged PIP4KtypeIIA and B enzymes were overexpressed in E. Coli and purified to >80% homogeneity. Phosphatidyl inositol-5-phosphate (PI5P, Cat. #850152, Avanti Polar Lipids Inc.) was used as the lipid substrate and phosphatidyl ethanolamine (DOPE 18:1, Cat. #850725, Avanti Polar Lipids Inc.) was used as the carrier lipid for assays. Ultrapure ATP and GTP was purchased from Bellbrooke Labs. ADP Glo reagents were obtained from Promega. Transcreener FI reagent was obtained from Bellbrooke labs.
GST-tagged PIP4KtypeIIB (3.4 μL, 2.77 mg/mL) was diluted to 5 mL using HNE buffer to yield 5× enzyme stock (25 nM)
Lipid Preparation: In a 10 mL pyrex glass vial, […] were suspended in 2.5 mL of HEPES buffer mix and 2.5 mL of H:E buffer. The contents were mixed and sonicated for 3 min to yield a translucent lipid stock.
Compound Preparation: Compounds were stored as 5 mM stocks in neat DMSO as room temperature in glass vials. 5 mM stocks were diluted to 2 mM and then serially diluted (3×) in neat DMSO in 96 well polypropylene plates. From the serially diluted stocks, 3 μL was delivered into 250 μL of 25% DMSO (in water) to generate 5× compound stocks. Typically, the highest compound conc. was 24 μM.
The assay volume was kept at 25 μL. To each well of the reaction plate, 10 μL of lipid stock (1:1 ratio PI5P:DOPE) was delivered. This was followed by the addition of 5 μL of compound in 25% DMSO. Then, to each well, 5 μL of 25 nM (5×) typeIIB enzyme was delivered. The contents were mixed well and incubated for 1 h at 27° C. After 1 h, reaction was initiated by adding 5 μL of 500 μM GTP and the contents were mixed well with a multi-channel pipetteman. The final concentration of the reagents are as follows: 50 mM HEPES, pH 7.3, 10 mM MgCl2, 20 mM NaCl, 0.01% v/v triton-X100, 5% DMSO, 100 μM GTP, 80 μM (2 μg) PI5P, 2 μg DOPE, and 5 nM PIP4KIIB Typically, the highest conc. of compounds was 4.8 μM and the lowest conc. was 0.
After 2 h, the reaction was quenched by adding 25 μL of transcreener FI reagent. The contents were incubated at rt for 1 h and the Fluorescence (Ex: 584 Em: 623) was read using Molecular Devices Paradigm plate reader. […] The blanks were averaged and subtracted from all other wells. Using a calibration curve, RFU was converted to μM GDP (product). IC50 was calculated by plotting the residual activity (expressed as % No inhibitor control) vs. log [Inh. conc.]

IC50 [1] | IC50 [2] | SMILES
100 to 1000 nM | > 1000 nM | CN(C)C(=O)c1ccc(-c2ccc(Nc3cnc4c(c3)NC(=O)CO4)nc2)cc1 [Example 88, N,N-dimethyl-4-(6-((2-oxo-2,3-dihydro-1H-pyrido[2,3-b][1,4]oxazin-7-yl)amino)pyridin-3-yl)benzamide]
1 to 10 nM | 10 to 100 nM | CN(C)C(=O)c1ccc(-c2ccc(Nc3cnc4c(c3)N(C(=O)C3CC3)CCO4)nc2)cc1 [Example 90, 4-(6-((1-(cyclopropanecarbonyl)-2,3-dihydro-1H-pyrido[2,3-b][1,4]oxazin-7-yl)amino)pyridin-3-yl)-N,N-dimethylbenzamide]
10 to 100 nM | 10 to 100 nM | CC(=O)OC(C)C(=O)N1CCOc2ncc(Nc3ccc(-c4ccc(C(=O)N(C)C)cc4)cn3)cc21 (stereo not drawn) [Example 91, 1-(7-((5-(4-(dimethylcarbamoyl)phenyl)pyridin-2-yl)amino)-2,3-dihydro-1H-pyrido[2,3-b][1,4]oxazin-1-yl)-1-oxopropan-2-yl acetate]
1 to 10 nM | 10 to 100 nM | CC(O)C(=O)N1CCOc2ncc(Nc3ccc(-c4ccc(C(=O)N(C)C)cc4)cn3)cc21 (stereo not drawn) [Example 92, 4-(6-((1-(2-hydroxypropanoyl)-2,3-dihydro-1H-pyrido[2,3-b][1,4]oxazin-7-yl)amino)pyridin-3-yl)-N,N-dimethylbenzamide]
1 to 10 nM | 10 to 100 nM | COC(=O)N1CCOc2ncc(Nc3ccc(-c4ccc(C(=O)N(C)C)cc4)cn3)cc21 [Example 93, methyl 7-((5-(4-(dimethylcarbamoyl)phenyl)pyridin-2-yl)amino)-2,3-dihydro-1H-pyrido[2,3-b][1,4]oxazine-1-carboxylate]
1 to 10 nM | 10 to 100 nM | CN(C)C(=O)c1ccc(-c2ccc(Nc3cnc4c(c3)N(C(=O)C(C)(C)C)CCO4)nc2)cc1 [Example 97, N,N-dimethyl-4-(6-((1-pivaloyl-2,3-dihydro-1H-pyrido[2,3-b][1,4]oxazin-7-yl)amino)pyridin-3-yl)benzamide]
10 to 100 nM | 10 to 100 nM | CN(C)C(=O)c1ccc(-c2ccc(Nc3cncc(NC(=O)c4cccc(N)c4)c3)nc2)cc1 [Example 99, 4-(6-((5-(3-aminobenzamido)pyridin-3-yl)amino)pyridin-3-yl)-N,N-dimethylbenzamide]
100 to 1000 nM | > 1000 nM | CN(C)C(=O)c1ccc(-c2ccc(Nc3cncc(N)c3)nc2)cc1 [Example 115, 4-(6-((5-aminopyridin-3-yl)amino)pyridin-3-yl)-N,N-dimethylbenzamide]
100 to 1000 nM | 10 to 100 nM | CN1C[C@H]2COc3ncc(Nc4ccc(-c5ccc(N6CCCC6=O)cc5)cn4)cc3N2S1(=O)=O [Example 175, (S)-1-(4-(6-((2-methyl-1,1-dioxido-2,3,3a,4-tetrahydropyrido[2,3-b][1,2,5]thiadiazolo[2,3-d][1,4]oxazin-8-yl)amino)pyridin-3-yl)phenyl)pyrrolidin-2-one]
1 to 10 nM | 1 to 10 nM | COCc1nc(Nc2cnc3c(c2)N2C(=O)C4(CC4)C[C@H]2CO3)ncc1-c1ccc(N2CCCC2=O)cc1 [Example 202, (S)-2′-((4-(methoxymethyl)-5-(4-(2-oxopyrrolidin-1-yl)phenyl)pyrimidin-2-yl)amino)-6a′,7′-dihydro-6′H,9′H-spiro[cyclopropane-1,8′-pyrido[2,3-b]pyrrolo[1,2-d][1,4]oxazin]-9′-one]
≤ 1 nM | 1 to 10 nM | CC(C)c1nc(Nc2cnc3c(c2)N2C(=O)CC[C@H]2CO3)ncc1-c1ccc(N2CCCC2=O)cc1 [Example 215, (S)-2-((4-isopropyl-5-(4-(2-oxopyrrolidin-1-yl)phenyl)pyrimidin-2-yl)amino)-6,6a,7,8-tetrahydro-9H-pyrido[2,3-b]pyrrolo[1,2-d][1,4]oxazin-9-one]
100 to 1000 nM | 10 to 100 nM | Cn1cnnc1N1CC=C(c2ccc(Nc3cnc4c(c3)N3C(=O)CC[C@H]3CO4)nc2)CC1 [Example 274, (S)-2-((1′-(4-methyl-4H-1,2,4-triazol-3-yl)-1′,2′,3′,6′-tetrahydro-[3,4′-bipyridin]-6-yl)amino)-6,6a,7,8-tetrahydro-9H-pyrido[2,3-b]pyrrolo[1,2-d][1,4]oxazin-9-one]
100 to 1000 nM | 10 to 100 nM | Cn1cnnc1N1CCN(c2ccc(Nc3cnc4c(c3)N3C(=O)CC[C@H]3CO4)nc2)CC1 [Example 275, (S)-2-((5-(4-(4-methyl-4H-1,2,4-triazol-3-yl)piperazin-1-yl)pyridin-2-yl)amino)-6,6a,7,8-tetrahydro-9H-pyrido[2,3-b]pyrrolo[1,2-d][1,4]oxazin-9-one]
1 to 10 nM | 1 to 10 nM | Cc1ccnnc1-c1ccc(-c2ccc(Nc3cnc4c(c3)N3C(=O)CC[C@H]3CO4)nc2)cc1 [Example 276, (S)-2-((5-(4-(4-methylpyridazin-3-yl)phenyl)pyridin-2-yl)amino)-6,6a,7,8-tetrahydro-9H-pyrido[2,3-b]pyrrolo[1,2-d][1,4]oxazin-9-one]
1 to 10 nM | 10 to 100 nM | Cc1cnoc1-c1ccc(-c2ccc(Nc3cnc4c(c3)N3C(=O)CC[C@H]3CO4)nc2)cc1 [Example 277, (S)-2-((5-(4-(4-methylisoxazol-5-yl)phenyl)pyridin-2-yl)amino)-6,6a,7,8-tetrahydro-9H-pyrido[2,3-b]pyrrolo[1,2-d][1,4]oxazin-9-one]
≤ 1 nM | 1 to 10 nM | Cc1cnnn1-c1ccc(-c2cnc(Nc3cnc4c(c3)N3C(=O)CC[C@H]3CO4)nc2C(C)C)cc1 [Example 278, (S)-2-((4-isopropyl-5-(4-(5-methyl-1H-1,2,3-triazol-1-yl)phenyl)pyrimidin-2-yl)amino)-6,6a,7,8-tetrahydro-9H-pyrido[2,3-b]pyrrolo[1,2-d][1,4]oxazin-9-one]
> 1000 nM | > 1000 nM | CN1CC2(CCN(c3ccc(Nc4cnc5c(c4)N4C(=O)CC[C@H]4CO5)nc3)CC2)OC1=O [Example 279, (S)-2-((5-(3-methyl-2-oxo-1-oxa-3,8-diazaspiro[4.5]decan-8-yl)pyridin-2-yl)amino)-6,6a,7,8-tetrahydro-9H-pyrido[2,3-b]pyrrolo[1,2-d][1,4]oxazin-9-one]
≤ 1 nM | 1 to 10 nM | O=C1CCCN1c1ccc(-c2cnc(Nc3cnc4c(c3)N3C(=O)CC[C@H]3CO4)nc2N2CCOCC2)cc1 [Example 280, (S)-2-((4-morpholino-5-(4-(2-oxopyrrolidin-1-yl)phenyl)pyrimidin-2-yl)amino)-6,6a,7,8-tetrahydro-9H-pyrido[2,3-b]pyrrolo[1,2-d][1,4]oxazin-9-one]
